Assay results published in patent US20150376198A1, “MODULATORS OF VASOPRESSIN RECEPTORS WITH THERAPEUTIC POTENTIAL” (priority 2013, published 2015).
Read-outs that look alike come from different tables or passages of the source.

Tests used:
OT receptor = biological target: T1, OT receptor (Homo sapiens, UniProt P30559); test: OT receptor binding (primary binding at 10 μM and Ki); details: for inhibition at 10 µM: read-out: OT binding, mean % inhibition
T1 sequence (P30559 1-389): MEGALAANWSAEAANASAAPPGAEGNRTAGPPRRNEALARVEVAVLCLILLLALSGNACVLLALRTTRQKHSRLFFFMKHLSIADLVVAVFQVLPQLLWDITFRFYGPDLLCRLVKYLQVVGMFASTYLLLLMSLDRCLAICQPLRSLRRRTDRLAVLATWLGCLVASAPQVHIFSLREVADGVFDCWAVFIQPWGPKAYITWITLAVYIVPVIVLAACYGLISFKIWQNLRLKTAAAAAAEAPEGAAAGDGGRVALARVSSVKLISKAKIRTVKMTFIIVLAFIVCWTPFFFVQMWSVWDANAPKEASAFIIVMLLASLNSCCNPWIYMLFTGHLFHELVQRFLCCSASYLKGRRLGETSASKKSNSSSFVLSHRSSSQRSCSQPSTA
Protocol: (§1) The default concentration for primary binding experiments was 10 μM.
(§2) See Examples for further details.

human V1a receptor = biological target: T2, human V1a receptor (Homo sapiens, UniProt P37288); test: Vasopressin V1a receptor binding assay (3H-AVP competition, CHO cells); details: for inhibition at 10 µM: read-out: V1A binding, mean % inhibition
T2 construct: expressed in transfected cells; host or cells: CHO cells (G418-selected hV1a cell line)
Protocol: (§3) Data represent Ki values (nM) or mean % inhibition (indicated as %) for exemplary compounds of formula (I) tested versus receptor subtypes.
as §1
Vasopressin V1a Receptor Binding Assay.
A cell line expressing the human Via receptor in CHO cells is used. The hV1a cDNA sequence is described by Thibonnier et al., (1994), and the expression method is the same as described by Morel et al. (1992). The hV1a cell line is grown in alpha-MEM with 10% fetal bovine serum and 250 ug/ml G418 (Gibco, Grand Island, N.Y., USA). For competitive binding assay, hV1a cells are plated into 6-well culture plate at 1:10 dilution from a confluency flask, and maintained in culture for at least two days. Culture medium is then removed, cells washed with 2 ml binding buffer (35 mM Hepes, 0.25% BSA, 1× DMEM, PH=7.0). To each well, 990 μl binding buffer containing 1 nM 3H-AVP is added, followed by 10 μl series diluted Example compounds dissolved in DMSO. All incubations are done in triplicate and dose-inhibition curves consisting of total binding (DMSO) and 5 concentrations (0.1, 1.0, 10, 100, and 1000 nM) of test agents encompassing the IC50. 100 nM cold AVP (Sigma) is used to assess non-specific binding. Cells are incubated for 45 minutes at 37° C., assay mixture is removed and each well is washed three times with PBS (pH=7.4). 1 ml 2% SDS was added per well, plates were let sit for 30 minutes. The whole content of a well is transferred to a scintillation vial. Each well is rinsed with 0.5 ml PBS which is then added to the corresponding vial. Scintillation fluid (Ecoscint) is then added at 3 ml per vial. Samples are counted in a liquid scintillation counter (Beckman LS3801). IC50 values are calculated by Prism Curve fitting software.

V2 receptor = V2 receptor (Homo sapiens, UniProt P30518); test: V2 receptor binding (primary binding at 10 μM and Ki); details: for inhibition at 10 µM: read-out: V2 binding, mean % inhibition
Protocol: as §3, §1, §2

T2 sequence (P37288 whole entry): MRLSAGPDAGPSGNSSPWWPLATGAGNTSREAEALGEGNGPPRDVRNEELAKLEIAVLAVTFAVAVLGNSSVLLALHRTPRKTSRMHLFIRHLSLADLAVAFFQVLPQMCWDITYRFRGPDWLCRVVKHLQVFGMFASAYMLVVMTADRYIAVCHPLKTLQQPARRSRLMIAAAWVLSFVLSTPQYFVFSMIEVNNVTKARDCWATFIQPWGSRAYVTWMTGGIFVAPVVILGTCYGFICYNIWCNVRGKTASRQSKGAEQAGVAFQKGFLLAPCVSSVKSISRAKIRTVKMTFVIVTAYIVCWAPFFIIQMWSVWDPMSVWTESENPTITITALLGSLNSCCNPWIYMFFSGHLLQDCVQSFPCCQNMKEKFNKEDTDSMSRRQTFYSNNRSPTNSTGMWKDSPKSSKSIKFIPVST
Chain of V2 receptor (P30518 whole entry): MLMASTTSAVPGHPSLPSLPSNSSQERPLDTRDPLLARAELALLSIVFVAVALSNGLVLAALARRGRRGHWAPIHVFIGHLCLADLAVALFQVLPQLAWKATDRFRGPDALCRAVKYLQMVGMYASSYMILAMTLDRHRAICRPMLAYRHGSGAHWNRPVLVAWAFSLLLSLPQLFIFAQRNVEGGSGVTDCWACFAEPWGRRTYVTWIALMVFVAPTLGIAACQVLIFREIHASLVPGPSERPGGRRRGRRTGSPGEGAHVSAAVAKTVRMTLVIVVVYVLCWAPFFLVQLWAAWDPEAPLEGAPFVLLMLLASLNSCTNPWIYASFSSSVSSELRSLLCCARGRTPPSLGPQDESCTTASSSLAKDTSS

COc1ccc(NC(=O)N2CCN(c3ccccc3C)CC2)cc1 [Compound 1]
inhibition at 10 µM (OT receptor; at 10 μM): 12.8%
inhibition at 10 µM (human V1a receptor): 34.1%

CCN(C(=O)N1CCN(c2ccccc2C)CC1)c1ccc(OC)cc1 [Compound 2]
inhibition at 10 µM (V2 receptor; at 10 μM): 33.6%
Ki (OT receptor; read-out: OT binding Ki): 13 nM
Ki (human V1a receptor): 10 nM

COc1ccc(N(CC2CC2)C(=O)N2CCN(c3ccccc3C)CC2)cc1 [Compound 3]
Ki (V2 receptor): 708 nM
Ki (OT receptor; read-out: OT binding Ki): 1 nM
Ki (human V1a receptor): 0.9 nM

COCCN(C(=O)N1CCN(c2ccccc2C)CC1)c1ccc(OC)cc1 [Compound 4]
inhibition at 10 µM (V2 receptor; at 10 μM): 24.5%
Ki (OT receptor; read-out: OT binding Ki): 21 nM
Ki (human V1a receptor): 10 nM

Cc1ccccc1N1CCN(C(=O)N(CC2CC2)CC2CCCO2)CC1 (stereo not shown) [Compound 5]
inhibition at 10 µM (V2 receptor; at 10 μM): 17.7%
Ki (OT receptor; read-out: OT binding Ki): 326 nM
Ki (human V1a receptor): 785 nM

CCN(C(=O)N1CCN(c2ncccc2C(F)(F)F)CC1)c1ccc(OC)cc1 [Compound 6]
inhibition at 10 µM (V2 receptor; at 10 μM): 33%
Ki (OT receptor; read-out: OT binding Ki): 45 nM
Ki (human V1a receptor): 113 nM

CCN(C(=O)N1CCN(Cc2ccccc2)CC1)c1ccc(OC)cc1 [Compound 8]
Ki (OT receptor; read-out: OT binding Ki): 1180 nM
inhibition at 10 µM (human V1a receptor): 35.1%

CCN(C(=O)N1CCN(C(=O)OC(C)(C)C)CC1)c1ccc(OC)cc1 [Compound 10]
inhibition at 10 µM (OT receptor; at 10 μM): 17.1%
inhibition at 10 µM (human V1a receptor): 2.2%

Cc1cc(C(=O)N(CC2CC2)CC2CCCO2)ccc1CNC(=O)N1CCN(Cc2cc(O)cc(O)c2)CC1 (stereo not shown) [Compound 13]
inhibition at 10 µM (V2 receptor; at 10 μM): 13.6%
inhibition at 10 µM (OT receptor; at 10 μM): 16.1%

COc1ccc(-n2c(C)nnc2-c2ccc(CNC(=O)N3CCN(Cc4cc(O)cc(O)c4)CC3)c(C)c2)cn1 [Compound 14]
inhibition at 10 µM (V2 receptor; at 10 μM): 5.8%
inhibition at 10 µM (OT receptor; at 10 μM): 19.6%

O=C(OCc1ccccc1)N1CCC(C(=O)N(CC2CC2)CC2CCCO2)CC1 (stereo not shown) [Compound 15]
inhibition at 10 µM (V2 receptor; at 10 μM): 12.8%
inhibition at 10 µM (OT receptor; at 10 μM): 2.8%
inhibition at 10 µM (human V1a receptor): 19%

CCN(C(=O)N1CCN(c2ncccc2Cl)CC1)c1ccc(OC)cc1 [Compound 16]
inhibition at 10 µM (V2 receptor; at 10 μM): 12.7%
Ki (OT receptor; read-out: OT binding Ki): 2320 nM
Ki (human V1a receptor): 1160 nM

CCN(C(=O)N1CCN(c2ccccn2)CC1)c1ccc(OC)cc1 [Compound 17]
inhibition at 10 µM (V2 receptor; at 10 μM): 17.9%
Ki (OT receptor; read-out: OT binding Ki): 118 nM
Ki (human V1a receptor): 79 nM

CCN(C(=O)C1CCN(C(=O)OCc2ccccc2)CC1)c1ccc(OC)cc1 [Compound 18]
inhibition at 10 µM (V2 receptor): 12.8%
inhibition at 10 µM (OT receptor): 2.8%
inhibition at 10 µM (human V1a receptor): 19%

CCN(C(=O)N1CCN(c2ncccc2C#N)CC1)c1ccc(OC)cc1 [Compound 19]
inhibition at 10 µM (V2 receptor; at 10 μM): 5.7%
Ki (OT receptor; read-out: OT binding Ki): 757 nM
Ki (human V1a receptor): 880 nM

CCN(C(=O)N1CCCN(c2ncccc2C(F)(F)F)CC1)c1ccc(OC)cc1 [Compound 20]
inhibition at 10 µM (V2 receptor; at 10 μM): 33%
Ki (OT receptor; read-out: OT binding Ki): 329 nM
Ki (human V1a receptor): 851 nM

CCN(C(=O)N1CCN(c2ncccc2C)CC1)c1ccc(OC)cc1 [Compound 21]
inhibition at 10 µM (V2 receptor; at 10 μM): 24.3%
Ki (OT receptor; read-out: OT binding Ki): 204 nM
Ki (human V1a receptor): 116 nM

CCN(C(=O)N1CCN(c2ncccn2)CC1)c1ccc(OC)cc1 [Compound 22]
inhibition at 10 µM (V2 receptor; at 10 μM): 6.6%
inhibition at 10 µM (OT receptor; at 10 μM): 27.7%
Ki (human V1a receptor; read-out: V1A binding Ki): 1590 nM

CCN(C(=O)C1CCN(c2ncccc2C(F)(F)F)CC1)c1ccc(OC)cc1 [Compound 24]
inhibition at 10 µM (V2 receptor; at 10 μM): 23.3%
Ki (OT receptor; read-out: OT binding Ki): 265 nM
Ki (human V1a receptor): 1170 nM

CCN(C(=O)N1CCN(C(=O)C23CC4CC(CC(C4)C2)C3)CC1)c1ccc(OC)cc1 [Compound 25]
inhibition at 10 µM (V2 receptor; at 10 μM): 40.4%
inhibition at 10 µM (OT receptor; at 10 μM): 40.7%
Ki (human V1a receptor; read-out: V1A binding Ki): 3880 nM

Cc1ccc(N(CC2CC2)C(=O)N2CCN(c3ccccc3C)CC2)cc1 [Compound 26]
Ki (V2 receptor): 1860 nM
Ki (OT receptor; read-out: OT binding Ki): 4.8 nM
Ki (human V1a receptor): 3 nM

Cc1ccccc1N1CCN(C(=O)N(CC2CC2)c2ccc(Cl)cc2)CC1 [Compound 27]
Ki (V2 receptor): 3780 nM
Ki (OT receptor; read-out: OT binding Ki): 2.3 nM
Ki (human V1a receptor): 1 nM

COc1ccccc1N(CC1CC1)C(=O)N1CCN(c2ccccc2C)CC1 [Compound 28]
Ki (V2 receptor): 5010 nM
Ki (OT receptor; read-out: OT binding Ki): 51 nM
Ki (human V1a receptor): 107 nM

Cc1ccccc1N1CCN(C(=O)N(CC2CC2)c2ccc(OC(F)(F)F)cc2)CC1 [Compound 29]
Ki (V2 receptor): 159 nM
Ki (OT receptor; read-out: OT binding Ki): 61 nM
Ki (human V1a receptor): 12 nM

COc1ccc(N(CC2CC2)C(=O)N2CCN(c3ccccc3C(F)(F)F)CC2)cc1 [Compound 30]
Ki (V2 receptor): 75 nM
Ki (OT receptor; read-out: OT binding Ki): 2.3 nM
Ki (human V1a receptor): 11 nM

COc1ccc(N(CC2CC2)C(=O)N2CCN(c3cc(Cl)ccc3C)CC2)cc1 [Compound 31]
Ki (V2 receptor): 7340 nM
Ki (OT receptor; read-out: OT binding Ki): 6 nM
Ki (human V1a receptor): 5 nM

COc1ccccc1N1CCN(C(=O)N(CC2CC2)c2ccc(OC(F)(F)F)cc2)CC1 [Compound 32]
Ki (V2 receptor): 1700 nM
Ki (OT receptor; read-out: OT binding Ki): 2.3 nM
Ki (human V1a receptor): 11 nM

COc1ccc(N(CC2CC2)C(=O)N2CCN(c3ncc(Cl)cc3Cl)CC2)cc1 [Compound 33]
Ki (V2 receptor): 205 nM
Ki (OT receptor; read-out: OT binding Ki): 4.1 nM
Ki (human V1a receptor): 3 nM

COc1ccc(N(CC2CC2)C(=O)C2CCN(Cc3ccccc3C(F)(F)F)C2)cc1 (stereo not shown) [Compound 34]
Ki (V2 receptor): 542 nM
Ki (OT receptor): 24.5 nM
Ki (human V1a receptor): 19 nM

COc1ccc(N(CC2CC2)C(=O)C2CCN(Cc3ccccc3Cl)C2)cc1 (stereo not shown) [Compound 35]
inhibition at 10 µM (V2 receptor; at 10 μM): < 50%
Ki (OT receptor; read-out: OT binding Ki): 37.4 nM
Ki (human V1a receptor): 71 nM
